According to patent publication US4496555A, “Compounds and compositions for inhibiting estrogen sulfotransferase transferase activity, process and novel intermediates therein” (Wayne State University, priority 1983, dated 1985):

How the values were obtained:
[1] = target: T1, Porcine Uterine Estrogen Sulfotansferase (Sus scrofa, UniProt A0A286ZW98); assay: Inhibition of porcine uterine estrogen sulfotransferase (estrogen sulfates formed); type: biochemical; settings: control 1.26 p mole
T1 sequence (A0A286ZW98 1-296): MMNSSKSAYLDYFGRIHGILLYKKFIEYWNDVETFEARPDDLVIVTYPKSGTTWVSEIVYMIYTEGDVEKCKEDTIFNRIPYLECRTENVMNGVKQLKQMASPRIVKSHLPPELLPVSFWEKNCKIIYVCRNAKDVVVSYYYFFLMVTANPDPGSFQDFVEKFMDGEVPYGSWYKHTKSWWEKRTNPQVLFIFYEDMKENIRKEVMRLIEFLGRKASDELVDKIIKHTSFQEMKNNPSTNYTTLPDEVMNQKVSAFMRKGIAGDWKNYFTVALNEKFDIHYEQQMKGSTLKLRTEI
Procedure: (§1) The estrogen sulfotransferase inhibiting activity of compounds within the scope of the invention are determined by inhibition of bovine adrenal or porcine uterine estrogen sulfotransferase. The desired concentration of estrogen sulfates is determined by comparisons after appropriate incubations with and without inhibitors and at various concentrations of inhibitors in the incubation. A detailed description of materials and methods for both bovine adrenal sulfotransferase inhibition and metabolism of estrogen in porcine uterus during implantation is described in U.S. Pat. No. 4,340,602 incorporated herein by reference above. Additionally, U.S. Pat. No. 4,340,602 describes materials and methods for determining estrogen sulfurylation in human endometrial curettings.

[2] = target: T2, Bovine Adrenal Estrogen Sulfotransferase (Bos taurus, UniProt P19217); assay: Purified bovine adrenal estrogen sulfotransferase inhibition; type: biochemical; settings: purified bovine adrenal enzyme; inhibitor concentration not given
T2 construct: from tissue; host or cells: bovine adrenal
T2 sequence (P19217 1-295): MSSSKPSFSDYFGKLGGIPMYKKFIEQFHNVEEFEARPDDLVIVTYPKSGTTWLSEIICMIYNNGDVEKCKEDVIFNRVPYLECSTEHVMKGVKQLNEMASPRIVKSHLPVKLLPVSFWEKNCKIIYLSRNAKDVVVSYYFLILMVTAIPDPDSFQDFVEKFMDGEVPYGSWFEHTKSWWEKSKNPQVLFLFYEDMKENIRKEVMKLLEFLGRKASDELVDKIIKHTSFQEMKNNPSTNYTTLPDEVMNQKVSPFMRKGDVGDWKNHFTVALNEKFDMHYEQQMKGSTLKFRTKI
Procedure: as §1
*Methods described in: Rozhin, J., et al. J. Biol. Chem. 252, 7214 (1977)

[3] = tested on: receptor binding and nuclear migration of physiological levels of 17β-estradiol; settings: Rozhin et al 1977; cited from earlier work
estrogen sulfurylation = settings: Rozhin et al, J. Biol Chem., 1977, 252, 7214; cited from earlier work

Structure (SMILES) | Estrogen Sulfates ([1]; 10-fold inhibitor) | Estrogen Sulfates ([1]; 10^2-fold inhibitor) | Estrogen Sulfates ([1]; 10^3 fold inhibitor) | % Inhibition [2] | interference with receptor binding and nuclear migration of 17β-estradiol [3] | estrogen sulfurylation (estrogen sulfurylation)
C[C@]12CC[C@@H]3c4cccc(F)c4CC[C@H]3[C@@H]1CC[C@@H]2O [4-F-1,3,5(10)estratriene 17β-ol, 4-Fluoroestra-1,3,5-(10)-trien-17β-ol] | 1.07 p mole | 1.08 p mole | 0.67 p mole | 81% | – | –
COc1ccc2c(c1[N+](=O)[O-])CC[C@@H]1[C@@H]2CC[C@]2(C)C(=O)CC[C@@H]12 [4-nitroestrone 3-0-methylether] | – | – | – | – | without interfering with the receptor binding and nuclear migration | blocks estrogen sulfurylation
